Laboratory results: patent US20230277534A1 (Plexxikon Inc., priority 2011, published 2023)

What was measured:
[1] = test system: COLO205 colon adenocarcinoma cells (B-Raf V600E mutation); assay: COLO205 cell growth inhibition (ATPlite); format: cell-based; conditions: Homo sapiens, COLO 205, 72 h, 3 days
Description: Compounds are assessed in a variety of cell based assays.
On day 1, cells are counted, then centrifuged in a conical tube for 5 minutes at 1000 rpm.
On day 2, compound at a maximum concentration of 5 mM is serially diluted 1:3 (e.g. 10 μL with 30 μL dimethyl sulfoxide) for a total of 8 point titration with DMSO as a control. A 1 μL aliquot of each dilution point and control is added to 249 μL growth media and 50 μL is added to a well containing cells, providing 10 μM compound at the maximum concentration point. The cells are incubated for 3 days at 37° C. in 5% CO2.
ATPlite is added 25 μL to each well, shake for 2 minutes, and the cells are incubated at room temperature for 10 minutes, then luminescence is read on Safire reader. The measured luminescence correlates directly with cell number, such that the reading as a function of compound concentration is used to determine the IC50 value.

[2] = biological target: B-Raf V600E (Homo sapiens (Human), UniProt P15056, V600E); assay: B-Raf V600E kinase biochemical activity assay (AlphaScreen, biotin-MEK1 substrate); conditions: 100 μM ATP
Outline: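 IC50 was derived from AlphaScreen signal (anti-phospho-MEK1/2 antibody with streptavidin donor and Protein A acceptor beads, 3 h) across 8 compound concentrations. The kinase step ran 45 min at room temperature: 0.1 ng B-Raf V600E, 100 nM biotin-MEK1, 100 μM final ATP, pH 7.0 HEPES with MgCl2/MnCl2.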

Chain of B-Raf V600E (P15056 whole entry V600E): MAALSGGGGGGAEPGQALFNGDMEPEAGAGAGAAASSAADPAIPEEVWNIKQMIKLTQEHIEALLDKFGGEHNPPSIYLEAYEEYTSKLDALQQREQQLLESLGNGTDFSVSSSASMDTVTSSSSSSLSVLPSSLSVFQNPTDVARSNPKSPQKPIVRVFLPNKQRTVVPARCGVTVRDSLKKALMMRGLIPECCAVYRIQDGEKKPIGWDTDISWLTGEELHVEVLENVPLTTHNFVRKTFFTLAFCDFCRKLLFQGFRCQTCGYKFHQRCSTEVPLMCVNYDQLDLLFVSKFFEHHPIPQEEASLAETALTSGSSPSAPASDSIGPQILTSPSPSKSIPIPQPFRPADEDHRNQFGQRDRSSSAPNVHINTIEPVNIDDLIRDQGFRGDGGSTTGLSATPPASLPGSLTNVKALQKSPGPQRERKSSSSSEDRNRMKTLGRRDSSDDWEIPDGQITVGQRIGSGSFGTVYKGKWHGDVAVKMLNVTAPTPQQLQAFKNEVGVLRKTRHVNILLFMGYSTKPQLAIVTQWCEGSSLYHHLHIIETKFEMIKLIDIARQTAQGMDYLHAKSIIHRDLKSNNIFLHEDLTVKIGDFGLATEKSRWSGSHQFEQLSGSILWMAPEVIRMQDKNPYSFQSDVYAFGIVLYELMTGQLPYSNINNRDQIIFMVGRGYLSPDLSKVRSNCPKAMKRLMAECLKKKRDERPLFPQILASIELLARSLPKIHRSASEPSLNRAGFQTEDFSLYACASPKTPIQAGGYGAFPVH

Row | IC50 [1] [µM] | IC50 [2] [µM] | Compound
1 | > 1 | < 0.1 | CCN(C)S(=O)(=O)Nc1cccc(C(=O)c2c[nH]c3ncc(-c4ccc(C#N)nc4)cc23)c1F [Compound P-0102, 5-(6-cyano-3-pyridyl)-3-[3-[[ethyl(methyl)sulfamoyl]amino]-2-fluoro-benzoyl]-1H-pyrrolo[2,3-b]pyridine]
2 | < 1 | < 0.1 | CN(C)c1ncc(-c2cnc3[nH]cc(C(=O)c4cccc(NS(=O)(=O)N(C)C)c4F)c3c2)cn1 [Compound P-0106, 5-[2-(dimethylamino)pyrimidin-5-yl]-3-[3-(dimethylsulfamoylamino)-2-fluoro-benzoyl]-1H-pyrrolo[2,3-b]pyridine]
3 | < 1 | < 0.1 | CN(C)S(=O)(=O)Nc1cccc(C(=O)c2c[nH]c3ncc(-c4cnc(N5CCCC5)nc4)cc23)c1F [Compound P-0107, 3-[3-(dimethylsulfamoylamino)-2-fluoro-benzoyl]-5-(2-pyrrolidin-1-ylpyrimidin-5-yl)-1H-pyrrolo[2,3-b]pyridine]
4 | < 1 | < 0.1 | CN(C)S(=O)(=O)Nc1cccc(C(=O)c2c[nH]c3ncc(I)cc23)c1F [Compound P-0110, 3-[3-(dimethylsulfamoylamino)-2-fluoro-benzoyl]-5-iodo-1H-pyrrolo[2,3-b]pyridine]
5 | < 1 | < 0.1 | CCCN(C)S(=O)(=O)Nc1cccc(C(=O)c2c[nH]c3ncc(-c4ccc(C5CC5)nc4)cc23)c1F [Compound P-0114, 5-(6-cyclopropyl-3-pyridyl)-3-[2-fluoro-3-[[methyl(propyl)sulfamoyl]amino]benzoyl]-1H-pyrrolo[2,3-b]pyridine]
6 | < 1 | < 0.1 | CN(CC1CC1)S(=O)(=O)Nc1cccc(C(=O)c2c[nH]c3ncc(-c4ccc(C5CC5)nc4)cc23)c1F [Compound P-0115, 3-[3-[[cyclopropylmethyl(methyl)sulfamoyl]amino]-2-fluoro-benzoyl]-5-(6-cyclopropyl-3-pyridyl)-1H-pyrrolo[2,3-b]pyridine]
7 | < 1 | < 0.1 | CCCN(C)S(=O)(=O)Nc1ccc(F)c(C(=O)c2c[nH]c3ncc(-c4cnc(OC)nc4)cc23)c1F [Compound P-0116, 3-[2,6-difluoro-3-[[methyl(propyl)sulfamoyl]amino]benzoyl]-5-(2-methoxypyrimidin-5-yl)-1H-pyrrolo[2,3-b]pyridine]
8 | > 1 | > 0.1 | CCCNS(=O)(=O)Nc1cccc(C(=O)c2c[nH]c3ncc(I)cc23)c1F [Compound P-0117, [2-fluoro-3-(propylsulfamoylamino)phenyl]-(5-iodo-1H-pyrrolo[2,3-b]pyridin-3-yl)methanone]
9 | < 1 | < 0.1 | CCC(C)S(=O)(=O)Nc1cccc(C(=O)c2c[nH]c3ncc(-c4cnc(N5CCCC5)nc4)cc23)c1F (stereo not drawn) [Compound P-0225, N-[2-fluoro-3-[5-(2-pyrrolidin-1-ylpyrimidin-5-yl)-1H-pyrrolo[2,3-b]pyridine-3-carbonyl]phenyl]butane-2-sulfonamide]
10 | < 1 | < 0.1 | CCC(C)S(=O)(=O)Nc1cccc(C(=O)c2c[nH]c3ncc(-c4cnc(C(C)C)nc4)cc23)c1F (stereo not drawn) [Compound P-0229, N-[2-fluoro-3-[5-(2-isopropylpyrimidin-5-yl)-1H-pyrrolo[2,3-b]pyridine-3-carbonyl]phenyl]butane-2-sulfonamide]
11 | < 1 | < 0.1 | CCC(C)S(=O)(=O)Nc1cccc(C(=O)c2c[nH]c3ncc(-c4cnc(C)nc4)cc23)c1F (stereo not drawn) [Compound P-0231, N-[2-fluoro-3-[5-(2-methylpyrimidin-5-yl)-1H-pyrrolo[2,3-b]pyridine-3-carbonyl]phenyl]butane-2-sulfonamide]

Further lines, the compound ahead of its results:

Row | Compound | IC50 [1] [µM] | IC50 [2] [µM]
12 | CCN(C)S(=O)(=O)Nc1cccc(C(=O)c2c[nH]c3ncc(-c4ccc(C(C)(C)O)cc4)cc23)c1F [Compound P-0104, 3-[3-[[ethyl(methyl)sulfamoyl]amino]-2-fluoro-benzoyl]-5-[4-(1-hydroxy-1-methyl-ethyl)phenyl]-1H-pyrrolo[2,3-b]pyridine] | < 1 | < 0.1
13 | O=C(c1cccc(NS(=O)(=O)N2CCCC2)c1F)c1c[nH]c2ncc(-c3cnc(N4CCCC4)nc3)cc12 [Compound P-0109, N-[2-fluoro-3-[5-(2-pyrrolidin-1-ylpyrimidin-5-yl)-1H-pyrrolo[2,3-b]pyridine-3-carbonyl]phenyl]pyrrolidine-1-sulfonamide] | < 1 | < 0.1
14 | CCCN(C)S(=O)(=O)Nc1cccc(C(=O)c2c[nH]c3ncc(-c4cnc(C)nc4)cc23)c1F [Compound P-0111, 3-[2-fluoro-3-[[methyl(propyl)sulfamoyl]amino]benzoyl]-5-(2-methylpyrimidin-5-yl)-1H-pyrrolo[2,3-b]pyridine] | < 1 | < 0.1
15 | Cc1ncc(-c2cnc3[nH]cc(C(=O)c4cccc(NS(=O)(=O)N(C)CC5CC5)c4F)c3c2)cn1 [Compound P-0112, 3-[3-[[cyclopropylmethyl(methyl)sulfamoyl]amino]-2-fluoro-benzoyl]-5-(2-methylpyrimidin-5-yl)-1H-pyrrolo[2,3-b]pyridine] | < 1 | < 0.1
16 | CN(C)S(=O)(=O)Nc1cccc(C(=O)c2c[nH]c3ncc(-c4ccc(C5CC5)nc4)cc23)c1F [Compound P-0113, 5-(6-cyclopropyl-3-pyridyl)-3-[3-(dimethylsulfamoylamino)-2-fluoro-benzoyl]-1H-pyrrolo[2,3-b]pyridine] | < 1 | < 0.1
17 | CCC(C)S(=O)(=O)Nc1cccc(C(=O)c2c[nH]c3ncc(-c4cnc(OC)nc4)cc23)c1F (stereo not drawn) [Compound P-0224, N-[2-fluoro-3-[5-(2-methoxypyrimidin-5-yl)-1H-pyrrolo[2,3-b]pyridine-3-carbonyl]phenyl]butane-2-sulfonamide] | < 1 | < 0.1
18 | CCC(C)S(=O)(=O)Nc1cccc(C(=O)c2c[nH]c3ncc(-c4cnc(NC5CC5)nc4)cc23)c1F (stereo not drawn) [Compound P-0226, N-[3-[5-[2-(cyclopropylamino)pyrimidin-5-yl]-1H-pyrrolo[2,3-b]pyridine-3-carbonyl]-2-fluoro-phenyl]butane-2-sulfonamide] | < 1 | < 0.1
19 | CCC(C)S(=O)(=O)Nc1cccc(C(=O)c2c[nH]c3ncc(-c4ccc(C5(C#N)CC5)cc4)cc23)c1F (stereo not drawn) [Compound P-0227, N-[3-[5-[4-(1-cyanocyclopropyl)phenyl]-1H-pyrrolo[2,3-b]pyridine-3-carbonyl]-2-fluoro-phenyl]butane-2-sulfonamide] | < 1 | < 0.1
20 | CCC(C)S(=O)(=O)Nc1cccc(C(=O)c2c[nH]c3ncc(-c4ccc(N(C)C)nc4)cc23)c1F (stereo not drawn) [Compound P-0230, N-[3-[5-[6-(dimethylamino)-3-pyridyl]-1H-pyrrolo[2,3-b]pyridine-3-carbonyl]-2-fluoro-phenyl]butane-2-sulfonamide] | < 1 | < 0.1
21 | O=C(c1cccc(NS(=O)(=O)N2CCCC2)c1F)c1c[nH]c2ncc(-c3cnc(N4CCOCC4)nc3)cc12 [Compound P-0235, N-[2-fluoro-3-[5-(2-morpholinopyrimidin-5-yl)-1H-pyrrolo[2,3-b]pyridine-3-carbonyl]phenyl]pyrrolidine-1-sulfonamide] | < 1 | < 0.1
